Laboratory results: patent publication US10548915B2, “Combination therapy for EV71 infection” (SUN JET BIOTECHNOLOGY INC., priority 2015, dated 2020)

Test system: EV71 replication in RD cells
Experiment: anti-VP1 western blot of EV71-infected RD cells (VP1/vimentin ratio normalized to non-treated infected cells)
Type: cell-based, enterovirus type 71 (EV71 strain 4643/TW/1998)
Description: Antibodies—Used antibodies included rabbit anti-VP1 (GTX70007, 1:2000, GeneTex), mouse anti-vimentin (sc-6260, 1:1000, Santa Cruz).
Cell lines, viruses and viral infection—RD (Human rhabdomyosarcoma, ATCC® CCL-136™) cells were grown in Dulbecco's modified Eagle's medium (Sigma, USA) containing 10% fetal bovine serum (Invitrogen, USA), at 5% CO2 and 37° C. EV71 strain 4643/TW/1998 (GeneBank accession number 1N544418.1) was kindly provided by Dr. Lih-Hwa Hwang at National Yang-Ming University, Taiwan. Viruses were added to RD cells which were cultured in DMEM containing 2% FBS. The newly generated viruses were titrated by cytopathology assay. For viral infection, cells were seeded at 80% confluency in 6-well dishes and grown overnight. Before challenge with viruses of 5 multiplicity of infection (MOI), old medium was replaced with serum-free medium. After 1 h adsorption of viruses, infected cells were cultured in DMEM with 10% FBS.
Western blotting—Protein extracted from RD cells were resolved with electrophoresis. Protein were blotted onto a nitrocellulose membrane eletrophoretically and incubated with indicated antibodies. The immunoreactive bands were visualized with LAS-4000 (FUJIFLIM).

[1] = single compound at 0.005 μM (so in the source), RD cells, EV71 MOI 5
[2] = single compound at 5 μM, RD cells, EV71 MOI 5

SMILES	anti-EV71 effect (VP1 expression), in words (single compound at 0.05 μM)	VP1 expression relative to non-treated infected cells [1]	anti-EV71 effect (VP1 expression), in words (single compound at 5 μM)	VP1 expression relative to non-treated infected cells [2]	other results
CC[C@H]1CN2CCc3cc(OC)c(OC)cc3[C@@H]2C[C@@H]1C[C@H]1NCCc2cc(OC)c(OC)cc21 [emetine]	VP1 expression returning				anti-EV71 effect (VP1 expression), in words (single compound at 0.5-5 μM): strong blockage of EV71 expression
C[C@@H]1O[C@@H](O[C@H]2C[C@@H](O)[C@]3(CO)[C@H]4[C@H](O)C[C@]5(C)[C@@H](C6=CC(=O)OC6)CC[C@]5(O)[C@@H]4CC[C@]3(O)C2)[C@H](O)[C@H](O)[C@H]1O [ouabain]					anti-EV71 effect (VP1 expression), in words (single compound at 0.005 μM): VP1 expression returning; anti-EV71 effect (VP1 expression), in words (single compound at 0.05-5 μM): strong blockage of EV71 expression
CNCC[C@H](Oc1ccc(C(F)(F)F)cc1)c1ccccc1 [fluoxetine, S-(+)-fluoxetine]					VP1 expression relative to non-treated infected cells (single compound, all tested concentrations (5, 0.5, 0.05 μM)): 0.9-1.0
O=C(Nc1ccc([N+](=O)[O-])cc1Cl)c1cc(Cl)ccc1O [niclosamide]	minimal effects	0.9	strong anti-EV71	0.2	
CC(=O)OC[C@H]1O[C@@H]([S-])[C@H](OC(C)=O)[C@@H](OC(C)=O)[C@@H]1OC(C)=O.CCP(CC)CC.[Au+] [auranofin]	minimal effects	0.9	strong anti-EV71	0.05	
